{"source": "paper PMC4860824", "about": "“Targeting the γ-/β-secretase interaction reduces β-amyloid generation and ameliorates Alzheimer’s disease-related pathogenesis” (Cell Discovery, 2015)", "molecular_target": "T1, presenilin-1 (PS1) (Homo sapiens, UniProt P49768)", "T1 construct": "gene PSEN1; PS1-NTF", "test": "dose-dependent competition with XYT1032 photo-affinity labelling in HEK293T cells ([…])", "type": "cell-based", "data": [{"smiles": "C=C1CCC2(C(=O)O)CC[C@]3(C)C(=CC[C@H]4C3(C)CC[C@H]3C(C)(C)[C@H](O)CC[C@@]34C)[C@@H]2C1", "note": "(stereo partly drawn) [3AA, 3-α-Akebonoic acid]", "values": [{"measurement": "dose-dependent competition with XYT1032 photo-affinity labelling in HEK293T cell", "result": "in the presence of XYT472B or 3AA, the labeling of PS1-NTF was decreased dose dependently"}]}]}
